Results taken from patent US10532038B2, “Beta-3 adrenoceptor agonists for the treatment of pulmonary hypertension” (FUNDACIÓN CENTRO NACIONAL DE INVESTIGACIONES …, priority 2012, dated 2020).

Key:
animals with acute PH = assay: Single dose in acute PH due to pulmonary embolism; type: in vivo, pigs; settings: 5 μg/Kg endovenous, 10 minutes after administration
From the text: In 10 2 month old healthy pigs (weighing ≈30 kg) anesthetized, intubated and ventilated with 40% FiO2, while continuously monitoring blood pressure, heart rate (HR), oxygen saturation as well as PAP and repeated measurements of cardiac output (CO) by means of thermodilution using a Swan-Ganz catheter, acute PH was generated by means of pulmonary embolization with a suspension of microspheres (Sephadex G50 coarse; Pharmacia Biotech; Freiburg, Germany) by femoral vein route. The dose necessary for causing an increase of mean PAP≥40 mmHg to remain stable for 10 minutes was administered. At that time the animals were randomized to receive specific β3 agonist BRL37344 (5 μg/Kg) or physiological saline (vehicle).
(§1) Cardiac output was quantified by the thermodilution technique.
(§2) A value of P<0.05 was considered significant.

[1] = tested on: post-capillary chronic PH model; assay: Single dose in chronic post-capillary PH
From the text: The post-capillary PH model was generated by means of the non-restrictive surgical cerclage of the main pulmonary vein in 4 week old piglets (weighing about 10 kg). This vein drains the blood from both lower lung lobes, forming about 80% of the pulmonary mass. With analgesia and general anesthesia and under cardiac monitoring and orotraqueal intubation, the right external jugular vein and common carotid artery were located by means of surgical dissection. The Swan-Ganz catheter was introduced through the venous access to continuously monitor PAP, pulmonary capillary pressure and cardiac output. The arterial route also served to monitor systemic blood pressure during the surgical intervention. By means of right lateral thoracotomy through the fifth intercostal space, non-restrictive cerclage of the main pulmonary vein was performed by means of placing a 5 mm wide polyester band around the vessel fitting the at-rest diameter of the pulmonary venous confluence right before it enters the left atrium. […] It is therefore a progressive PH model (severity intensifies throughout follow-up). […] At the end of follow-up, the animals were euthanized and their hearts extracted for histological analysis.
(§3) The hemodynamic study was conducted by means of right heart catheterization strictly using the same methodology as in humans. Once PH was generated, the following parameters were quantified basally and after the administration of the β3 agonist, in duplicate: PAP, pulmonary capillary pressure and right atrial pressure. Cardiac output was quantified by the thermodilution technique. Five measurements were taken, and the mean of 3 measurements was considered after excluding the highest and lowest determinations. Left ventricular end-diastolic pressure was determined by means of placement of a pig-tail catheter inside the left ventricle through the femoral artery. Pulmonary vascular resistances were calculated as the difference between mean PAP and left ventricular end-diastolic pressure divided by the cardiac output and expressed in Wood units.
The effect of the drug was evaluated 10 minutes after administration in acute PH and 20 minutes after administration in chronic PH.
The continuous variables are expressed as mean±SD and qualitative variables are expressed as frequency (%). The comparison between the intervention groups with respect to changes in the variables, calculated as the difference between the post-treatment and pre-treatment value (both in acute PH and chronic PH), was performed by means of the Wilcoxon test. The evaluation of the effect of a single dose of β3 agonist on the hemodynamic parameters in chronic PH was performed by means of the Student's T test or Wilcoxon test for paired data, according to the distribution of the variables. A value of P<0.05 was considered significant.

[2] = tested on: pre-capillary chronic PH model; assay: Single dose in chronic pre-capillary PH; type: in vivo, Large-White pigs, Sus scrofa
From the text: The pre-capillary PH model was generated by means of pulmonary arterial embolization with synthetic microspheres 300 microns in diameter (Sephadex G50 coarse; Pharmacia Biotech; Freiburg, Germany), a variant of a model previously described (Bernd W. Bottiger, MD; Johann Motsch, MD; Joachim Dorsam, MD; UlfMieck, MD; Andre Gries, MD, forg Weimann, MD; and Eike Martin, MD. Inhaled Nitric Oxide Selectively Decreases Pulmonary Artery Pressure and Pulmonary Vascular Resistance Following Acute Massive Pulmonary Microembolism in Piglets. CHEST1996; 110:1041-47).
The protocol was initiated in 3 month old Large-White pigs, Sus scrofa species (weighing ≈40 kg). After general anesthesia and analgesia and under cardiac monitoring and orotracheal intubation, the femoral vein and artery were cannulated by means of percutaneous puncture in the cardiac hemodynamics laboratory. Through the venous access, a Swan-Ganz catheter was placed in one of the main branches of the pulmonary artery (PA), which was connected to a monitor to continuously record PAP and to quantify pulmonary capillary pressure and cardiac output. The arterial route allowed continuously recording systemic blood pressure. Venous access served to administer the microspheres towards the pulmonary arterial circulation. A solution was prepared with 500 mg of microspheres in 200 ml of physiological saline and the amount necessary to reach mean sustained PAP>40 mmHg in about 20 minutes was administered. This method was repeated weekly (3-5 embolizations) until generating chronic PH (mean PAP>25 mmHg at rest). Two-month follow-up was conducted on the animals. […] The histopathological lesions observed in the lung reproduce those shown in arterial PH or chronic thromboembolic PH in humans: arterial intima proliferation with media hypertrophy and perivascular fibrosis, vascular occlusions, and complex lesions such as vascular aneurisms or plexiform lesions.
as §1, §2

[3] = tested on: animals with post-capillary chronic PH; assay: Chronic endovenous treatment in post-capillary chronic PH (blind, randomized); settings: 10 μg/Kg/day for 14 days
From the text: The post-capillary PH model was generated by means of the non-restrictive surgical cerclage of the main pulmonary vein in 4 week old piglets (weighing about 10 kg). This vein drains the blood from both lower lung lobes, forming about 80% of the pulmonary mass. With analgesia and general anesthesia and under cardiac monitoring and orotraqueal intubation, the right external jugular vein and common carotid artery were located by means of surgical dissection. The Swan-Ganz catheter was introduced through the venous access to continuously monitor PAP, pulmonary capillary pressure and cardiac output. The arterial route also served to monitor systemic blood pressure during the surgical intervention. By means of right lateral thoracotomy through the fifth intercostal space, non-restrictive cerclage of the main pulmonary vein was performed by means of placing a 5 mm wide polyester band around the vessel fitting the at-rest diameter of the pulmonary venous confluence right before it enters the left atrium. […]
as §3, with “Five measurements were taken, and the mean of 3 measurements was considered after excluding the highest and lowest determinations.” left out
The continuous variables are expressed as mean±SD and qualitative variables are expressed as frequency (%). The comparison between the intervention groups with respect to changes in the variables, calculated as the difference between the post-treatment and pre-treatment value (both in acute PH and chronic PH), was performed by means of the Wilcoxon test. […]

[4] = tested on: animals with post-capillary chronic PH; assay: Chronic oral treatment in post-capillary chronic PH (blind, randomized); type: in vivo, pigs; settings: 50 mg/12 hours orally for 14 days; intermediate analysis (N=4); control group showed an increase of PVRs
Method: as §1
To evaluate the chronic effect of treatment with Mirabegron, a 50 mg tablet was administered orally every 12 hours in all cases. The fixed dose for all the animals was based on doses used in humans for different pathologies (never PH because it has never been tested in this entity), resulting in no adverse effects. The dose used for treating neurogenic bladder is 25 to 50 mg/day, whereas in studies designed to evaluate the effect of this drug in heart failure (see “Beta 3 Agonist Treatment in Heart Failure (Beat-HF) NCT01876433”), the expected initial dose is 25 mg/12 hours, being titrated to a maximum of 150 mg/12 hours. The dose of 50 mg/12 hours intends to be an average dose that can be easily extrapolated to patients with whom an efficacy study could be conducted knowing that the side effect profile is favorable.
Another cohort of animals with post-capillary chronic PH were randomized into chronic therapy for 14 days with Mirabegron (Myrbetrig® 50 mg/12 hours) or placebo. Right heart catheterization was performed pre- and post-treatment.

[5] = 5 μg/Kg endovenous single dose, 20 minutes after administration

## C[C@H](Cc1ccc(OCC(=O)O)cc1)NC[C@H](O)c1cccc(Cl)c1 [BRL 37344, [4-[(2R)-2-[[(2R)-2-(3-clorophenyl)-2-hydroxyethyl]amino]propyl]phenoxy]acetic acid]
Animals with acute PH; placebo 1.0±7.4, p=0.31, not significant
  variation of mean systemic blood pressure: −4.6±8.0
Animals with acute PH; placebo −0.20±0.31, p=0.008
  change of CO (post- minus pre-treatment): 0.62±0.53
Animals with acute PH; placebo −0.4±1.3, p=0.008
  change of PVR (post- minus pre-treatment): −6.5±2.4
Animals with acute PH; placebo −3.0±7.1, p=0.84, not significant
  variation of HR: −4.4±14.1
Animals with acute PH; placebo −3.8±4.2, p=0.008
  change of PAPm (post- minus pre-treatment): −13.0±4.5
[1]; [5]
  increase of oxygen saturation: 3.2%
  increase of the cardiac output: 18%
  reduction of pulmonary vascular resistances: 36%
  reduction of systolic pulmonary pressure: 23%
  reduction of the mean PAP: 30%
[1]; 5 μg/Kg endovenous, 20 minutes, from 3.29±0.9 before, p=0.07
  cardiac output after administration: 3.90 ± 1.5 L/min
[1]; 5 μg/Kg endovenous, 20 minutes, from 10.0±4.3 before, p=0.002
  pulmonary vascular resistances after administration: 6.4±3.2 Wood units
[1]; 5 μg/Kg endovenous, 20 minutes, from 37.6±9.8 before, p<0.001
  mean PAP after administration: 28.8±9.8 mmHg
[1]; 5 μg/Kg endovenous, 20 minutes, from 50.6±15.5 before, p<0.001
  systolic pulmonary pressure after administration: 38.9±9.9 mmHg
[1]; 5 μg/Kg endovenous, 20 minutes, from 83.8±21.1 before, p=0.20, no significant change
  heart rate after administration: 87.8±16.8 bpm
[1]; 5 μg/Kg endovenous, 20 minutes, from 85.7±13.9 before, p=0.11, no significant change
  systemic blood pressure after administration: 79.9±6.9 mmHg
[1]; 5 μg/Kg endovenous, 20 minutes, from 90.88±2.64 before, p=0.001
  oxygen saturation after administration: 93.75±3.01%
[2]; [5]
  changes in heart rate: without significant changes
  changes in systemic blood pressure: without significant changes
  decrease of the mean PAP: 32%
  increase of oxygen saturation: 2%
  reduction of systolic PAP: 25%
[2]; 5 μg/Kg endovenous, 20 minutes, from 29.5±2.1 before
  mean PAP after administration: 20.0±5.7 mmHg
[2]; 5 μg/Kg endovenous, 20 minutes, from 37.5±6.4 before
  systolic PAP after administration: 28.0±8.5 mmHg
[3]; osmotic pump, jugular vein, placebo +1.3±1.2, p=0.042
  change of pulmonary vascular resistances (PVRs) after 14 days: −1.2±1.6 WU
[3]; placebo 3.0±28.2, p=0.49, not significant
  change in heart rate after 14 days: −8.2±15.1 bpm
[3]; placebo 4.3±7.0, p=0.25, not significant
  change in systemic mean blood pressure after 14 days: 2.3±6.9 mmHg

## Nc1nc(CC(=O)Nc2ccc(CCNC[C@H](O)c3ccccc3)cc2)cs1 [Mirabegron]
[4]
  change of PVRs after 14 days: a reduction of PVRs was observed
